Like-named read-outs stand apart in the source and are kept apart here.
How the values were obtained:
GluA4 = biological target: T1, GluA4 (Mus musculus, UniProt Q9Z2W8); assay: Concentration-dependent binding of PFQX1(AF488), confocal live imaging of HEK293T cells expressing GluA4; conditions: n = 3, read-out: Kd / Affinity of PFQX1(AF488) to GluA4
T1 construct: expressed in transfected cells; host or cells: HEK293T
Procedure: (§1) HEK293T cells were cotransfected with plasmids for AMPAR [5′UTR-GluA1^flip(R)-3′UTR, GluA2^flip(Q)-3′UTR, GluA3^flip(Q) (Y454A/R461G), and GluA4^flip(Q)], kainate receptor [GluK2(Q)], auxiliary subunits, or the control vector and transfection marker (EFGP-F or mCherry-F). Fluorophore-ligand conjugates were diluted in Hepes-buffered saline (HBS) buffer [20 mM Hepes (pH 7.4), 107 mM NaCl, 6 mM KCl, 1.2 mM MgSO4, 2 mM CaCl2, and 11.5 mM glucose] and added to the cells. Confocal live imaging was performed with LSM900 (Carl Zeiss) equipped with a 63×, numerical aperture (NA) = 1.4 oil-immersion objective. Fluorescence images were acquired by excitation at 405, 488, 561, or 640 nm derived from diode lasers.
(§2) For evaluating the concentration dependency of fluorophore-ligand conjugates, 0.1 nM probe in HBS was added to the dish. Then, probes in HBS were added stepwise to the dish to a final concentration of 0.3, 1, 3, 10, 30, 100, 300, 1000, and 3000 nM. Cell surface fluorescence intensity was quantified from the line scans of transfection marker positive cells and calculated with subtraction of background by ZEN blue software (Carl Zeiss). The membrane intensity was fitted with KaleidaGraph (Synergy software) to calculate the equilibrium constant value using the following equation: a + (b − a)/(1 + (x/c)^d). The equilibrium constant is regarded as the Kd in this study.

AMPARs = assay: Staining of AMPARs in acute cerebellar slices; type: binding, mouse; conditions: 30 nM probe; acute cerebellar slices; incubation at least 5 min
Procedure: following secondary antibodies were used: donkey anti-mouse CF568 conjugated (Sigma, […]
1:1,000) and anti-rabbit Alexa Fluor Plus 488 conjugated (Invitrogen, A32731, 1,000).
Imaging was performed with confocal microscopy.
With two-step labeling, the cells were labeled as described in “Two -step labeling and PFQX1(AF488)staining in cultured neurons,” followed by immunostaining.
In fig. S9A, the cells were incubated with 500 nM CellTracker Red CMPTX (Invitrogen) instead of Calcein Red AM for 30 min at 37 °C to visualize the intracellular region before the immunostaining.
Preparation and staining of cerebellar acute brain slices
C57BL/6J mice (3 weeks) were anesthetized with isoflurane, and their brains were isolated and immediately transferred to ice-cold cutting solution buffer (120 mM Choline Chloride, 3 mM KCl, 8 mM MgCl2, 1.25 mM NaH2PO4, 28 mM NaHCO3, 22 mM Glucose, and 0.5 mM Sodium ascorbate) gassed with 5% CO2 and 95% O2 and incubated for 5 min. Sagittal cerebellar slices were cut with a microslicer (Neo-linear slicer NLS-MT; DOSAKA EM) in cutting solution buffer and then incubated in ACSF […]
NaHCO3, 10 mM Glucose) gassed with 5% CO 2 and 95% O 2 at 37 °C.
Acute slices were transferred to glass bottom dishes and treated with 30 nM PFQX1(AF488) in HEPES-based ACSF for 5 min. […]
Scale bars, 500 µm. (F) Quantification of probe intensity in Ε. […]

[1] = Solubility of PFQX(Dye)s in HBS; type: physicochemical; conditions: aqueous buffer; dissolved in HBS
Procedure: aAffinity was evaluated in HEK293T cells expressing GluA2 flip(Q).
S3A. bPFQX(Dye)sweredissolved in HBS.
cAffinity to native AMPARs were evaluated usingprimary cultured hippocampal

native AMPARs = assay: Concentration-dependent binding of PFQX1(AF488) to AMPARs in primary cultured hippocampal neurons; design: species or system mouse; conditions: for Kd: n = 3
Procedure: We modified the Banker’s culture method of hippocampal neurons ([59]). Glass-bottom dishes (14 mm φ, Matsunami) were coated with poly-D-lysine (Sigma-Aldrich) and washed three times with sterile dH2O. Hippocampi from 16-day-old ICR mouse embryos were aseptically dissected and digested with 0.25% (w/v) trypsin (Nacalai Tesque) for 20 min at 37°C. The cells were resuspended in Neurobasal Plus medium supplemented with 10% FBS, 1 mM GlutaMAX I (Invitrogen), penicillin (100 U/ml), and streptomycin (100 μg/ml) and filtered by Cell Strainer (100 μm, Falcon) followed by centrifugation at 1000 rpm for 5 min. The cells were resuspended in Neurobasal Plus medium supplemented with 2% of B-27 Plus Supplement, 1 mM GlutaMAX I (Invitrogen), penicillin (100 U/ml), and streptomycin (100 μg/ml) and plated at a density of 2 × 10^4 cells on glass-bottom dishes. Precultured cortical astrocytes on glass coverslips (13 mm φ) were transferred to the dishes so that astrocytes were faced to neurons. The cultures were maintained at 37°C in a 95% air and 5% CO2 humidified incubator. The culture medium was replaced every 7 days, and the neurons were used at 16 to 18 days in vitro (DIV).
Calcein Red AM (50 nM; AAT Bioquest) was added to the cultured neurons for 30 min at 37°C to visualize the intracellular region. The cells were washed with Hepes-based ACSF [25 mM Hepes (pH 7.4), 140 mM NaCl, 5 mM KCl, 1.3 mM CaCl2, 2 mM MgCl2, and 33 mM glucose], and 100 nM PFQX1(AF488) in Hepes-based ACSF was added to the dish.
For evaluating the concentration dependency of PFQX1(AF488), the cells were treated with 1 nM PFQX1(AF488). Then, PFQX1(AF488) in Hepes-based ACSF was added stepwise to the dish to a final concentration of 3, 10, 30, 100, 300, and 1000 nM. To quantify the concentration dependency after cLTP, the procedure described above was conducted after cLTP stimulation as described in the section “cLTP and quantification of cell-surface AMPARs.” The average intensity of ROIs set on spines was calculated by ZEN blue software after subtracting background fluorescence. The intensity was fitted with KaleidaGraph to calculate the equilibrium constant value using the following equation: a + (b − a)/(1 + (x/c)^d). The equilibrium constant is regarded as the Kd in this study.

GluA1 = GluA1 (Mus musculus, UniProt P23818); assay: Concentration-dependent binding of PFQX1(AF488), confocal live imaging of HEK293T cells expressing GluA1; conditions: n = 3, mean ± s.e.m., read-out: Kd / Affinity of PFQX1(AF488) to GluA1
Sequence of GluA1 (P23818 19-907): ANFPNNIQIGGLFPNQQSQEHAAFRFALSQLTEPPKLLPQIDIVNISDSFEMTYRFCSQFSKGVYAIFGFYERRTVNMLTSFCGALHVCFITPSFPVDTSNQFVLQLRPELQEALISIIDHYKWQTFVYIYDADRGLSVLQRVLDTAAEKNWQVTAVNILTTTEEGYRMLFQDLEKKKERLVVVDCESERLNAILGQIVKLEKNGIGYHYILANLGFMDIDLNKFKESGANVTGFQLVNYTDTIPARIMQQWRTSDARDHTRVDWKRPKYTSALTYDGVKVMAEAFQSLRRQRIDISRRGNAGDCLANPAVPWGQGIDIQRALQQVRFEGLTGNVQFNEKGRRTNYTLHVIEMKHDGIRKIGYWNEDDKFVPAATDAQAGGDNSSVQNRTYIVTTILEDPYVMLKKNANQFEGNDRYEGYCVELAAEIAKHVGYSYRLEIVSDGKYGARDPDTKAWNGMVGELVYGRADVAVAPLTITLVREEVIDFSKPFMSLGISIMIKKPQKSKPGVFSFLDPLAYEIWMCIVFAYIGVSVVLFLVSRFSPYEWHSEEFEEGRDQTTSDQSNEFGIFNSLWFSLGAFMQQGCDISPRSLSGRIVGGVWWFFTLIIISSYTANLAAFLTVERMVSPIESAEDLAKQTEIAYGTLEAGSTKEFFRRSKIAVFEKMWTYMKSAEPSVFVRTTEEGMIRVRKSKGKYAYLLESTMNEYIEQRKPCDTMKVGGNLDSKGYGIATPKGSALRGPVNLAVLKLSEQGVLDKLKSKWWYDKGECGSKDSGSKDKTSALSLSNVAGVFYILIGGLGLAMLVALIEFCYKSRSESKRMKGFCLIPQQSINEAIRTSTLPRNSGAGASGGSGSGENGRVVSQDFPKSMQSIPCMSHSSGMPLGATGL
Procedure: as §1, §2

T1 sequence (Q9Z2W8 21-902): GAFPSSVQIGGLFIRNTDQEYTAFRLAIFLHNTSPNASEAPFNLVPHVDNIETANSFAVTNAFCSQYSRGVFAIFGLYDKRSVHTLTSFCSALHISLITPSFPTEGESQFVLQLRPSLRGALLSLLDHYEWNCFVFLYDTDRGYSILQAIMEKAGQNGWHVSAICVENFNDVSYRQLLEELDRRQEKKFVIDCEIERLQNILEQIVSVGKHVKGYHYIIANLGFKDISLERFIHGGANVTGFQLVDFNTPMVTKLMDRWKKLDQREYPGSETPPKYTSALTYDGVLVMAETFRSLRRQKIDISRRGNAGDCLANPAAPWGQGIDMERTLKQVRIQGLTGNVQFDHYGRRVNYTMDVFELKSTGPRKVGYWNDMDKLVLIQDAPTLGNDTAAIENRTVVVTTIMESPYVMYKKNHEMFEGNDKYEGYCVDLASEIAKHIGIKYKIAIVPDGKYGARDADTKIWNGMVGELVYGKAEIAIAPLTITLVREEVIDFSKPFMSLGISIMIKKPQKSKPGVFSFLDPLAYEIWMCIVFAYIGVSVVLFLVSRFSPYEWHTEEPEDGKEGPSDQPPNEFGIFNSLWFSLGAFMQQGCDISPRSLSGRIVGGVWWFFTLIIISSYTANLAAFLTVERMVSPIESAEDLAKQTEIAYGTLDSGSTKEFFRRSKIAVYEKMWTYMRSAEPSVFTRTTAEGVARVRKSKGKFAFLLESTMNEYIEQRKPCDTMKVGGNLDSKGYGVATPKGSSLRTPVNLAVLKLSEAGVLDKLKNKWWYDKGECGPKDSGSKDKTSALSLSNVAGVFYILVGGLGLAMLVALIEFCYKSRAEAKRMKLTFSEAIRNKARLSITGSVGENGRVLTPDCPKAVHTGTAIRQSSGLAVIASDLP

## N=c1ccc2c(-c3ccc(C(=O)NCc4ccn(-c5cc6c(cc5C(F)(F)F)[nH]c(=O)c(=O)n6CC(=O)O)c4)cc3C(=O)O)c3ccc(N)c(S(=O)(=O)O)c3oc-2c1S(=O)(=O)O [PFQX1(AF488)]
GluA4
  Kd: 20.2 ± 1.2 nM
AMPARs
  reversibility of binding (medium exchange) in slices: can be washed out by the medium exchange
[1]
  solubility: > 1470 µM
Native AMPARs; 10 nM probe, from Fig. 4C
  fraction of AMPARs bound / suppressed by the probe: less than 10%
Native AMPARs; cultured hippocampal neurons after cLTP stimulation, read-out: Kd value after cLTP
  Kd: 72.4 ± 17.4 nM
Native AMPARs; primary cultured hippocampal neurons, spine fluorescence, read-out: Kd / Affinity to native AMPARs
  Kd: 97.5 ± 9.9 nM
GluA1
  Kd: 78.7 ± 15.4 nM
